Read-outs that look alike come from different tables or passages of the source.
Legend:
HIV BH-10 WT = assay: Cell-based assay using BH-10 cells, wild type
HIV mutant strain Y181C = assay: Cell-based assay using BH-10 cells, Y181C mutant
Description: (§1) In a typical embodiment, the NNRTIs display an EC50 in a mutant HIV strain of less than approximately 5, 2.5, 1 or 0.1 μM concentration. The degree of cross-resistance against a drug resistant strain of HIV is measured by assessing the EC50 of the desired oxo-pyrimidine compound in the target mutated, i.e., drug resistant, virus.
(§2) The degree of cross-resistance against a drug resistant strain of HIV can easily be measured by assessing the EC50 of the desired indole in the target mutated i.e., drug resistant, virus.

[1] = test system: HIV mutant strain K103N/Y181C; assay: Cell-based assay using BH-10 cells, K103N/Y181C mutant
Description: as §1, §2

[2] = Human immunodeficiency virus 1, read-out: EC50 WT///B, BH-10 cells, wild type
[3] = Human immunodeficiency virus 1, read-out: EC50 Y181C, BH-10 cells, Y181C mutant
[4] = Human immunodeficiency virus 1, read-out: EC50 K103N/Y181C, BH-10 cells, K103N/Y181C mutant

Work on `COP(=O)(c1cc(C)cc(C)c1)c1c(C(=O)NCCc2cc[n+]([O-])cc2)[nH]c2ccc(Cl)cc12` (stereo not drawn) [Compound 22c] yielded an EC50 (HIV BH-10 WT; [2]) of 2.8 nM, an EC50 (HIV mutant strain Y181C; [3]) of 10.1 nM and an EC50 [1, 4] of 26.8 nM.
`COP(=O)(c1cc(C)cc(C)c1)c1c(C(=O)NCc2cc[n+]([O-])cc2F)[nH]c2ccc(Cl)cc12` (stereo not drawn) [Compound 22d] gave an EC50 (HIV BH-10 WT; [2]) of 2.9 nM, an EC50 (HIV mutant strain Y181C; [3]) of 1.5 nM and an EC50 [1, 4] of 6.7 nM.
With `COP(=O)(c1cc(C)cc(C)c1)c1c(C(=O)NCc2cnc[n+]([O-])c2)[nH]c2ccc(Cl)cc12` (stereo not drawn) [Compound 22g] the EC50 (HIV BH-10 WT; [2]) was 2.1 nM, the EC50 (HIV mutant strain Y181C; [3]) was 10.7 nM and the EC50 [1, 4] was 3 nM.
`CCc1cc(C)cc(P(=O)(OC)c2c(C(=O)NCc3ccc[n+]([O-])c3)[nH]c3ccc(Cl)cc23)c1` (stereo not drawn) [Compound 22h] showed an EC50 (HIV BH-10 WT; [2]) of 1.6 nM, an EC50 (HIV mutant strain Y181C; [3]) of 5.8 nM and an EC50 [1, 4] of 3.6 nM.
Compound `COP(=O)(c1cc(C)cc(C)c1)c1c(C(=O)NCc2ccc[n+]([O-])c2)[nH]c2ccc(Cl)c(F)c12` (stereo not drawn) [Compound 22j] has an EC50 (HIV BH-10 WT; BH-10 cells, wild type, read-out: EC50 WT///B) of 6.8 nM, an EC50 (HIV mutant strain Y181C; BH-10 cells, Y181C mutant, read-out: EC50 Y181C) of 9.9 nM and an EC50 ([1]; BH-10 cells, K103N/Y181C mutant, read-out: EC50 K103N/Y181C) of 6 nM.
Work on `COP(=O)(c1cc(C)cc(C)c1)c1c(C(=O)NCc2cc[n+](C)cc2)[nH]c2ccc(Cl)cc12` (stereo not drawn) [Compound 22l] yielded an EC50 (HIV BH-10 WT; [2]) of 6.1 nM, an EC50 (HIV mutant strain Y181C; [3]) of 269 nM and an EC50 [1, 4] of 77.4 nM.
In the case of `COP(=O)(c1cc(C)cc(C)c1)c1c(C(=O)NCc2cc[n+]([O-])cc2)[nH]c2ccc(Cl)c(F)c12` (stereo not drawn) [Compound 22m], the EC50 (HIV BH-10 WT; [2]) is reported as 2.1 nM, the EC50 (HIV mutant strain Y181C; [3]) is reported as 2.6 nM and the EC50 [1, 4] is reported as 1.9 nM.
For `COP(=O)(c1cc(C)cc(C)c1)c1c(C(=O)NCc2cc[n+]([O-])cc2)[nH]c2ccc(Cl)cc12` (stereo not drawn) [Compound 22n], the EC50 (HIV BH-10 WT; [2]) was 2 nM, the EC50 (HIV mutant strain Y181C; [3]) was 8.8 nM and the EC50 [1, 4] was 4.5 nM.
`COP(=O)(c1cc(C)cc(C)c1)c1c(C(=O)NCc2cccc[n+]2[O-])[nH]c2ccc(Cl)cc12` (stereo not drawn) [Compound 22p] gave an EC50 (HIV BH-10 WT; [2]) of 1.9 nM, an EC50 (HIV mutant strain Y181C; [3]) of 51.3 nM and an EC50 [1, 4] of 17.9 nM.
`COP(=S)(c1ccccc1)c1c(C(N)=O)[nH]c2ccc(Cl)cc12` (stereo not drawn) [Compound 25b] was tested, and the EC50 (HIV BH-10 WT; [2]) was 0.4 nM, the EC50 (HIV mutant strain Y181C; [3]) was 41.4 nM and the EC50 [1, 4] was 89.9 nM.
Work on `COP(=O)(c1cccc(/C=C/C#N)c1)c1c(C(N)=O)[nH]c2ccc(Cl)cc12` (stereo not drawn) [Compound 33a] yielded an EC50 (HIV BH-10 WT; [2]) of 3.2 nM, an EC50 (HIV mutant strain Y181C; [3]) of 2 nM and an EC50 [1, 4] of 3.4 nM.
For `CCOP(=O)(c1cccs1)c1c(C(N)=O)[nH]c2ccc(Cl)cc12` (stereo not drawn) [Compound 51], the EC50 (HIV BH-10 WT; [2]) was 2.2 nM, the EC50 (HIV mutant strain Y181C; [3]) was 52.9 nM and the EC50 [1, 4] was 65.6 nM.
For `COP(=O)(c1ccsc1)c1c(C(N)=O)[nH]c2ccc(Cl)cc12` (stereo not drawn) [Compound 52a], the EC50 (HIV BH-10 WT; [2]) was 0.5 nM, the EC50 (HIV mutant strain Y181C; [3]) was 1.5 nM and the EC50 [1, 4] was 6.3 nM.
Compound `COP(=O)(c1cccs1)c1c(C(N)=O)[nH]c2ccc(Cl)cc12` (stereo not drawn) [Compound 52b] has an EC50 (HIV BH-10 WT; [2]) of 0.5 nM, an EC50 (HIV mutant strain Y181C; [3]) of 8.7 nM and an EC50 [1, 4] of 2.5 nM.
Compound `COP(=O)(CC=C(C)C)c1c(C(N)=O)[nH]c2ccc(Cl)cc12` (stereo not drawn) [Compound 57b] has an EC50 (HIV BH-10 WT; [2]) of 0.8 nM, an EC50 (HIV mutant strain Y181C; [3]) of 13.1 nM and an EC50 [1, 4] of 174 nM.
Work on `COP(=O)(c1cc(F)cc(F)c1)c1c(C(=O)NCC#N)[nH]c2ccc(Cl)cc12` (stereo not drawn) [Compound 59a] yielded an EC50 (HIV BH-10 WT; [2]) of 1.4 nM, an EC50 (HIV mutant strain Y181C; [3]) of 47.3 nM and an EC50 [1, 4] of 8.4 nM.
Compound `COP(=O)(c1cc(F)cc(F)c1)c1c(C(=O)NCCC#N)[nH]c2ccc(Cl)cc12` (stereo not drawn) [Compound 59b] has an EC50 (HIV BH-10 WT; [2]) of 3.5 nM, an EC50 (HIV mutant strain Y181C; [3]) of 69.3 nM and an EC50 [1, 4] of 21.5 nM.

Reference: patent US7534809B2, “Phospho-indoles as HIV inhibitors” (priority 2004, dated 2009)
